According to US10316017B2, “COT modulators and methods of use thereof” (Gilead Sciences, Inc., priority 2015, dated 2019):
Read-outs that look alike come from different tables or passages of the source.

Molecular target: T1, human Cot catalytic domain (30-397 amino acids) (Homo sapiens, UniProt P41279)
T1 construct: Purified recombinant human Cot catalytic domain (30-397 amino acids) was purchased from Cama Biosciences; purchased Cama Biosciences (so in the source)
Assay: High Throughput Cot Biochemical Assay (KinEASE TR-FRET)
Settings: 400 μM ATP
Method: Example 61: High Throughput Cot Biochemical Assay
In this assay, Cot-catalyzes the phosphorylation of a XL665-labeled peptide substrate. Europium conjugated phospho-tyrosine specific antibody binds the resulting phosphorylated peptide. […] Purified recombinant human Cot catalytic domain (30-397 amino acids) was purchased from Cama Biosciences. […] The standard 5 μL reaction mixture contained 400 μM ATP, 1 μM STK3 peptide, 5 nM of Cot in reaction buffer (10 mM MOPS, pH 7.0, 0.02% NaN3, 0.5 mg/mL BSA, 10 mM MgOAc, 1 mM DTT, 0.025% NP-40, 1.5% glycerol) and 0.1% DMSO.

[1] = Cot KinEASE TR-FRET, read-out: IC50 HTRF

T1 sequence (P41279 30-397): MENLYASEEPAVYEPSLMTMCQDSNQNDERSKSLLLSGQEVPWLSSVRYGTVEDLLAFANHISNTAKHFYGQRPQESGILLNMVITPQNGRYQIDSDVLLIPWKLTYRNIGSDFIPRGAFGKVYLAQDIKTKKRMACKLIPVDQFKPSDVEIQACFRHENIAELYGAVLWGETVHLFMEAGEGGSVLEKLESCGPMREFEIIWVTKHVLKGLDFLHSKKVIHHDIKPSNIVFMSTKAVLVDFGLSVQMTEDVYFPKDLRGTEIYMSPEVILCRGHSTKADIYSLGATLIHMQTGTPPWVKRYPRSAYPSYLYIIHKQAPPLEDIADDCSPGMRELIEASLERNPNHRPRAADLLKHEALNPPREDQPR

N#Cc1cnc2c(Cl)cc(NC(c3ccc(F)cc3)c3cn(C4CCNC4)nn3)cc2c1Nc1ccc(F)c(Cl)c1 (stereo in doubt) [Example 873, 8-chloro-4-((3-chloro-4-fluorophenyl)amino)-6-(((4-fluorophenyl)(1-((S)-pyrrolidin-3-yl)-1H-1,2,3-triazol-4-yl)methyl)amino)quinoline-3-carbonitrile]
IC50 [1]: 21 nM

CCN1CCC(n2cc([C@H](C)Nc3cc(Cl)c4ncc(C#N)c(Nc5ccc(F)c(Cl)c5)c4c3)nn2)CC1 [Comparative Example 2, reference compound]
IC50 (first value of the cell IC50/EC50, 5 nM Cot, read-out: IC50/EC50 [nM]: IC50 (Cot)): 62 nM

CCN1CCC(n2cc(C(Nc3cc(Cl)c4ncc(C#N)c(Nc5ccc(F)c(Cl)c5)c4c3)c3ccc(Cl)cc3)nn2)CC1 (stereo not shown) [Compound 6]
IC50 [1]: 13 nM

N#Cc1cnc2c(Cl)cc(N[C@@H](c3ccc(F)cc3)c3cn(C4CCN(C5COC5)CC4)nn3)cc2c1Nc1ccc(F)c(Cl)c1 [Compound 31]
IC50 [1]: 19 nM

COCc1cccc([C@H](Nc2cc(Cl)c3ncc(C#N)c(Nc4ccc(F)c(Cl)c4)c3c2)c2cn(C3CCN(C(C)(C)C)CC3)nn2)c1 [Compound 38]
IC50 [1]: 2 nM

COC(=O)c1cccc([C@@H](c2cn(C3CCN(C(C)(C)C)CC3)nn2)N(C)c2cc(Cl)c3ncc(C#N)c(Nc4ccc(F)c(Cl)c4)c3c2)c1 [Compound 39]
IC50 [1]: 1990 nM

N#Cc1cnc2c(Cl)cc(NC(c3ccc(F)cc3)c3ccno3)cc2c1Nc1ccc(F)c(Cl)c1 (stereo not shown) [Example 717, 8-chloro-4-((3-chloro-4-fluorophenyl)amino)-6-(((4-fluorophenyl)(isoxazol-5-yl)methyl)amino)quinoline-3-carbonitrile]
IC50 [1]: 1580 nM

Cc1snnc1C(Nc1cc(Cl)c2ncc(C#N)c(Nc3ccc(F)c(Cl)c3)c2c1)c1ccc(F)cc1 (stereo not shown) [Example 718, 8-chloro-4-((3-chloro-4-fluorophenyl)amino)-6-(((4-fluorophenyl)(5-methyl-1,2,3-thiadiazol-4-yl)methyl)amino)quinoline-3-carbonitrile]
IC50 [1]: 3460 nM

C#CC(c1ccc(Cl)cc1)N(c1cc(Cl)c2ncc(C#N)c(Nc3cncc(Cl)c3)c2c1)C(c1ccc(Cl)cc1)c1cn(C2CCN(C(C)(C)C)CC2)nn1 (stereo not shown) [Example 725, 6-(((1-(1-(tert-butyl)piperidin-4-yl)-1H-1,2,3-triazol-4-yl)(4-chlorophenyl)methyl)(1-(4-chlorophenyl)prop-2-yn-1-yl)amino)-8-chloro-4-((5-chloropyridin-3-yl)amino)quinoline-3-carbonitrile]
IC50 [1]: 338 nM

CN(C)CCNCc1cccc([C@H](Nc2cc(Cl)c3ncc(C#N)c(Nc4ccc(F)c(Cl)c4)c3c2)c2cn(C3CCN(C(C)(C)C)CC3)nn2)c1 [Example 726, (S)-6-(((1-(1-(tert-butyl)piperidin-4-yl)-1H-1,2,3-triazol-4-yl)(3-(((2-(dimethylamino)ethyl)amino)methyl)phenyl)methyl)amino)-8-chloro-4-((3-chloro-4-fluorophenyl)amino)quinoline-3-carbonitrile]
IC50 [1]: 39 nM

Cn1cc(C(Nc2cc(Cl)c3ncc(C#N)c(Nc4ccc(F)c(Cl)c4)c3c2)c2cccc(C3OCCO3)c2)nn1 (stereo not shown) [Example 730, 6-(((3-(1,3-dioxolan-2-yl)phenyl)(1-methyl-1H-1,2,3-triazol-4-yl)methyl)amino)-8-chloro-4-((3-chloro-4-fluorophenyl)amino)quinoline-3-carbonitrile]
IC50 [1]: 12 nM

CC(C)(C)N1CCC(n2cc([C@@H](Nc3cc(Cl)c4ncc(C#N)c(Nc5ccc(F)c(F)c5)c4c3)c3ccc(Cl)cc3)nn2)CC1 [Example 732, (S)-6-(((1-(1-(tert-butyl)piperidin-4-yl)-1H-1,2,3-triazol-4-yl)(4-chlorophenyl)methyl)amino)-8-chloro-4-((3,4-difluorophenyl)amino)quinoline-3-carbonitrile]
IC50 [1]: 30 nM

CN(C)Cc1ccc([C@H](Nc2cc(Cl)c3ncc(C#N)c(Nc4ccc(F)c(Cl)c4)c3c2)c2cn(C3CCN(C(C)(C)C)CC3)nn2)cc1 [Example 735, (S)-6-(((1-(1-(tert-butyl)piperidin-4-yl)-1H-1,2,3-triazol-4-yl)(4-((dimethylamino)methyl)phenyl)methyl)amino)-8-chloro-4-((3-chloro-4-fluorophenyl)amino)quinoline-3-carbonitrile]
IC50 [1]: 105 nM

CN(c1ccc(F)c(Cl)c1)c1c(C#N)cnc2c(Cl)cc(N[C@@H](c3ccc(Cl)cc3)c3cn(C4CCN(C(C)(C)C)CC4)nn3)cc12 [Example 749, (S)-6-(((1-(1-(tert-butyl)piperidin-4-yl)-1H-1,2,3-triazol-4-yl)(4-chlorophenyl)methyl)amino)-8-chloro-4-((3-chloro-4-fluorophenyl)(methyl)amino) quinoline-3-carbonitrile]
IC50 [1]: 3210 nM

COc1cc(Nc2c(C#N)cnc3c(Cl)cc(N[C@@H](c4ccc(Cl)cc4)c4cn(C5CCN(C(C)(C)C)CC5)nn4)cc23)c(Cl)cc1Cl [Example 751, (S)-6-(((1-(1-(tert-butyl)piperidin-4-yl)-1H-1,2,3-triazol-4-yl)(4-chlorophenyl)methyl)amino)-8-chloro-4-((2,4-dichloro-5-methoxyphenyl)amino)quinoline-3-carbonitrile]
IC50 [1]: > 10000 nM

CC(C)(C)N1CCC(n2cc([C@@H](Nc3cc(Cl)c4ncc(C#N)c(Nc5ccn(CC(F)(F)F)n5)c4c3)c3ccc(Cl)cc3)nn2)CC1 [Example 752, (S)-6-(((1-(1-(tert-butyl)piperidin-4-yl)-1H-1,2,3-triazol-4-yl)(4-chlorophenyl)methyl)amino)-8-chloro-4-((1-(2,2,2-trifluoroethyl)-1H-pyrazol-3-yl)amino)quinoline-3-carbonitrile]
IC50 [1]: > 10000 nM

CC(C)(C)N1CCC(n2cc([C@@H](Nc3cc(Cl)c4ncc(C#N)c(Nc5ccc(F)c(S(C)(=O)=O)c5)c4c3)c3ccc(Cl)cc3)nn2)CC1 [Example 754, (S)-6-(((1-(1-(tert-butyl)piperidin-4-yl)-1H-1,2,3-triazol-4-yl)(4-chlorophenyl)methyl)amino)-8-chloro-4-((4-fluoro-3-(methylsulfonyl)phenyl)amino) quinoline-3-carbonitrile]
IC50 [1]: 2530 nM

CC(C)(C)N1CCC(n2cc([C@@H](Nc3ccc4nc(N)c(C#N)c(Nc5ccc(F)c(Cl)c5)c4c3)c3ccc(Cl)cc3)nn2)CC1 [Example 760, (S)-2-amino-6-(((1-(1-(tert-butyl)piperidin-4-yl)-1H-1,2,3-triazol-4-yl)(4-chlorophenyl)methyl)amino)-4-((3-chloro-4-fluorophenyl)amino)quinoline-3-carbonitrile]
IC50 [1]: 2340 nM

CC(C)(C)N1CCC(n2cc([C@@H](Nc3cc(Cl)c4ncc(C#N)c(Nc5cccc(C(F)F)c5)c4c3)c3ccc(Cl)cc3)nn2)CC1 [Example 761, (S)-6-(((1-(1-(tert-butyl)piperidin-4-yl)-1H-1,2,3-triazol-4-yl)(4-chlorophenyl)methyl)amino)-8-chloro-4-((3-(difluoromethyl)phenyl)amino) quinoline-3-carbonitrile]
IC50 [1]: 484 nM

CC(C)(C)N1CCC(n2cc([C@@H](Nc3cc(Cl)c4ncc(C#N)c(Nc5cccc(C(F)(F)F)c5)c4c3)c3ccc(Cl)cc3)nn2)CC1 [Example 762, (S)-6-(((1-(1-(tert-butyl)piperidin-4-yl)-1H-1,2,3-triazol-4-yl)(4-chlorophenyl)methyl)amino)-8-chloro-4-((3-(trifluoromethyl)phenyl)amino) quinoline-3-carbonitrile]
IC50 [1]: 513 nM

CC(C)(C)N1CCC(n2cc([C@@H](Nc3cc(Cl)c4ncc(C#N)c(Nc5ccc(F)c(Br)c5)c4c3)c3ccc(Cl)cc3)nn2)CC1 [Example 763, (S)-4-((3-bromo-4-fluorophenyl)amino)-6-(((1-(1-(tert-butyl)piperidin-4-yl)-1H-1,2,3-triazol-4-yl)(4-chlorophenyl)methyl)amino)-8-chloroquinoline-3-carbonitrile]
IC50 [1]: 23 nM

COc1cc2ncc(C#N)c(Nc3ccc(F)c(Cl)c3)c2cc1N[C@@H](c1ccc(Cl)cc1)c1cn(C2CCN(C(C)(C)C)CC2)nn1 [Example 769, (S)-6-(((1-(1-(tert-butyl)piperidin-4-yl)-1H-1,2,3-triazol-4-yl)(4-chlorophenyl)methyl)amino)-4-((3-chloro-4-fluorophenyl)amino)-7-methoxyquinoline-3-carbonitrile]
IC50 [1]: > 10000 nM

CC(C)(C)N1CCC(n2cc([C@@H](Nc3cc(Cl)c4ncc(C#N)c(Nc5ccc(C#N)c(Cl)c5)c4c3)c3ccc(Cl)cc3)nn2)CC1 [Example 770, (S)-6-(((1-(1-(tert-butyl)piperidin-4-yl)-1H-1,2,3-triazol-4-yl)(4-chlorophenyl)methyl)amino)-8-chloro-4-((3-chloro-4-cyanophenyl)amino)quinoline-3-carbonitrile]
IC50 [1]: 60 nM

CC(C)(C)N1CCC(n2cc([C@@H](Nc3cc(Cl)c4ncc(C#N)c(Nc5cncc(F)c5)c4c3)c3ccc(Cl)cc3)nn2)CC1 [Example 771, (S)-6-(((1-(1-(tert-butyl)piperidin-4-yl)-1H-1,2,3-triazol-4-yl)(4-chlorophenyl)methyl)amino)-8-chloro-4-((5-fluoropyridin-3-yl)amino)quinoline-3-carbonitrile]
IC50 [1]: 93 nM

CC(C)(C)N1CCC(n2cc([C@@H](Nc3cc(Cl)c4ncc(C#N)c(Nc5cccnc5)c4c3)c3ccc(Cl)cc3)nn2)CC1 [Example 772, (S)-6-(((1-(1-(tert-butyl)piperidin-4-yl)-1H-1,2,3-triazol-4-yl)(4-chlorophenyl)methyl)amino)-8-chloro-4-(pyridin-3-ylamino)quinoline-3-carbonitrile]
IC50 [1]: 324 nM
